The target in experiment [1] is Melatonin receptor type 1A (Sus scrofa, UniProt O02781).
Experiment [2] has as its target Melatonin receptor type 1A (Homo sapiens, UniProt P48039).
Experiment [3] addresses T1, Melatonin receptor type 1B (Homo sapiens, UniProt P49286).
T1 sequence (P49286 whole entry): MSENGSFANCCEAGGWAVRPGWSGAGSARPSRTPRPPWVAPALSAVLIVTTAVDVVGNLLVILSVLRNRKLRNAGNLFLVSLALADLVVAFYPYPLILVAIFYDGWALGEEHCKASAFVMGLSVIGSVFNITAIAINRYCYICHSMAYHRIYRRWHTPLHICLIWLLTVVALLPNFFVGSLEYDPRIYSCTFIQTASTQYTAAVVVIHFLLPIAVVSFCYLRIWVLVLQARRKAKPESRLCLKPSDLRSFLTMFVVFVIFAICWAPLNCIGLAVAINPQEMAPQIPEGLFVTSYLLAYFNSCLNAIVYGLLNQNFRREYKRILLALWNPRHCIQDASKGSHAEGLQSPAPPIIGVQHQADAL

This is an account of results in BindingDB's records for PubMed 9618428 (Glaxo Wellcome Research and Development, 1998).

Where “and” joins values, the source holds several entries; their conditions need not be identical. Identical values can stand only once.

Melatonin receptor type 1A (Sus scrofa, UniProt O02781), sequence (O02781 whole entry): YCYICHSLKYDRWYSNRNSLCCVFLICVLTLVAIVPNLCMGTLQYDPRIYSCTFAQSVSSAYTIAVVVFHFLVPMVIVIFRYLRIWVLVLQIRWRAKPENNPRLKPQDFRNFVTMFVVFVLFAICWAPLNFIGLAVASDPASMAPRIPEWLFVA
Melatonin receptor type 1A (Homo sapiens, UniProt P48039), sequence (P48039 whole entry): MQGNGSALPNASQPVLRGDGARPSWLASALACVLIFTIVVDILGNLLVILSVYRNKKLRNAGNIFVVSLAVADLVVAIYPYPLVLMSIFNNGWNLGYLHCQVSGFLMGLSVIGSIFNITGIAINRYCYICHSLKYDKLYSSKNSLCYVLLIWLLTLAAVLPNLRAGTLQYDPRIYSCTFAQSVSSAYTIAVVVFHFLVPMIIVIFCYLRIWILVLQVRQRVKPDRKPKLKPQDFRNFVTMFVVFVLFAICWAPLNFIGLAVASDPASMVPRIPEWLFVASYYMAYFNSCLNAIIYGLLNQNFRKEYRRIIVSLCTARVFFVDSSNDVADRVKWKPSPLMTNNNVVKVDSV

Consider `COc1ccc2[nH]cc(CCNC(C)=O)c2c1`, for which the Ki in experiment [1] is 0.25 nM and 0.24 nM.
With `COc1cc2c(CCNC(C)=O)c[nH]c2cc1Cl`, in experiment [1], the Ki is 0.46 nM and 0.74 nM.
On the same count and under the same terms, with `CC(=O)NCCc1c(Cc2ccccc2)[nH]c2ccccc12` [CAS_117946-91-5] the figure was 933 nM and 676 nM.
On to `CC(=O)NCCN1CCc2ccc3c(c21)CCO3` [NSC_5311134], for which the Ki in experiment [2] is 0.14 nM; in experiment [3], 0.16 nM; in experiment [1], 0.61 nM and 0.33 nM.
As for `COc1ccc2[nH]c(I)c(CCNC(C)=O)c2c1`, the Ki in experiment [1] is 0.03 nM and 0.04 nM.
Take `COc1cc2c(CCNC(C)=O)c[nH]c2cc1O` [melatonin, 6-Hydroxy]: the Ki was 0.54 nM in experiment [2]; 2.23 nM and 1.69 nM in experiment [3]; 10.2 nM and 25.1 nM in experiment [1].
For `CC(=O)NCCc1c[nH]c2ccc(O)cc12` [N-Acetyltryptamine,5-Hydroxy], the Ki in experiment [2] was 79.4 nM; in experiment [3], 302 nM and 148 nM; in experiment [1] it was 398 nM and 347 nM.

Broadly, the Ki is the equilibrium dissociation constant of an inhibitor or competing ligand from its target. Lower therefore signals tighter binding.
